A value given as a limit tells only on which side of the number the result lay.

The nature of data set [1]: Toxicity in CD-1 mouse infected with Trypanosoma cruzi Y trypomastigotes assessed as mortality at 50 mg/kg/day, po pre-infected with parasite followed by compound addition and measured after 15 days relative to control. It is filed as organism-based. As to conditions: in vivo, 360 h, time 15 day.
Data set [2] in a line: Toxicity in CD-1 mouse infected with Trypanosoma cruzi Y MHOM/MX/1994/INC5 from blood stream trypomastigotes assessed as reduction in parasite growth by measuring lethal concentration. As to conditions: in vivo, 24 h.
Data set [3] is described as follows: Toxicity in CD-1 mouse infected with Trypanosoma cruzi Y MHOM/MX/1994/NINOA from blood stream trypomastigotes assessed as reduction in parasite growth by measuring lethal concentration. As to conditions: in vivo, 24 h.
For data set [4], the system named is Trypanosoma cruzi. Kind of data set: Antitrypanosomal activity against Trypanosoma cruzi Tulahuen amastigotes expressing Escherichia coli beta-galactosidase infected in LLC-MK2 cells incubated for 48 hrs. The conditions noted are these: LLC-MK2, 48 h. It is filed as functional, organism-based.
Data set [5] relates to Trypanosoma cruzi. The data set can be described thus: Antitrypanosomal activity against bloodstream trypomastigote form of Trypanosoma cruzi Y. It is filed as functional, organism-based.
Data set [6] deals with Trypanosoma cruzi. Kind of data set: Trypanocidal activity against Trypanosoma cruzi Tulahuen-2 epimastigotes incubated for 24 hrs by Neubauer chamber method. It is filed as functional, organism-based. As to conditions: Tulahuen-2, 24 h.
Data set [7] concerns Trypanosoma cruzi. The data set can be described thus: Antitrypanosomal activity against bloodstream […] form of Trypanosoma cruzi Y. It is filed as functional, organism-based.
Data set [8] in a line: Cytotoxicity against rhesus monkey LLC-MK2 cells. It is filed as toxicity, cell-based, Macaca mulatta.
In data set [9] the test system is Trypanosoma cruzi. The data set can be described thus: Antitrypanosomal activity against Trypanosoma cruzi Y strain trypomastigotes Vero cells assessed as inhibition of parasite growth incubated for 24 hrs by Neubauer chamber based analysis. It is filed as functional, organism-based.
Data set [10] deals with Trypanosoma cruzi. The data set can be described thus: Antitrypanosomal activity against bloodstream trypomastigote form of Trypanosoma cruzi Y assessed as parasite growth inhibition incubated for 24 hrs by light microscopic analysis. It is filed as functional, organism-based.
Data set [11] concerns Trypanosoma cruzi. The data set can be described thus: Antitrypanosomal activity against Trypanosoma cruzi Tulahuen-2 infected in […] J774 cells assessed as inhibition of parasite proliferation. It is filed as functional, organism-based. The conditions noted are these: Tulahuen-2, J774.
Data set [12] deals with Trypanosoma cruzi. Kind of data set: Trypanocidal activity against Trypanosoma cruzi NINOA epimastigotes incubated for 24 hrs by Neubauer chamber method. It is filed as functional, organism-based.
Data set [13] relates to Trypanosoma cruzi. The data set can be described thus: Anti-trypanosomal activity against Trypanosoma cruzi Y trypomastigotes infected in mouse RAW264.7 cells assessed as inhibition of parasite release measured for 48 hrs. As to conditions: RAW264.7, 48 h. It is filed as functional, organism-based.
Data set [14] concerns Trypanosoma cruzi. Kind of data set: Antitrypanosomal activity against bloodstream trypomastigote form of Trypanosoma cruzi Y assessed as reduction in parasite growth. It is filed as functional, organism-based.

For the compound `O=C(N/N=C/c1ccc(F)cc1)c1ccccc1`, the Activity in data set [1] is listed as 46.2%.
By LC50 is commonly meant the concentration that kills 50% of the test population. Turning to `c1ccc(CSc2nc3ccccc3s2)cc1`, the LC50 in data set [2] was determined as 336 µM; in [3], 123 µM.
As a reminder, the IC50 is the concentration at which inhibition is half-maximal. In the data set on Trypanosoma cruzi [4], `NC(=S)N/N=C(\C=C\c1ccc(Cl)cc1)c1ccccc1` showed an IC50 of 12.2 µM.
For `Fc1cccc(Nc2cnc3ccccc3c2)c1`, the IC50 is 420 µM in the data set on Trypanosoma cruzi [5], 13.5 µM in the data set on Trypanosoma cruzi [6] and 22.8 µM in the data set on Trypanosoma cruzi [7].
Take `Fc1ccc(Nc2cnc3ccccc3c2)cc1`: the IC50 in the data set with Trypanosoma cruzi [5] was found to be 616 µM; in the data set with Trypanosoma cruzi [6], 11.3 µM; in the data set on Trypanosoma cruzi [7] it was 10.9 µM.
A word on the CC50: it is the concentration at which the toxic effect on the cells reaches its halfway point. Take `O=C(Cn1cccc1[N+](=O)[O-])Nc1cccc(C(F)(F)F)c1`: the CC50 at 48 h in [8] came out at 2.1 µM.
For `C/C(=N\N=C1/NC(=O)C(c2ccccc2)S1)c1cc(Cl)ccc1Cl` (stereo not given), the IC50 in the data set on Trypanosoma cruzi [9] is 0.85 µM.
For the compound `Fc1cccc(F)c1CSc1nc2ccccc2s1`, the LC50 was 260 µM in data set [2] and 110 µM in [3].
As to `Fc1c(F)c(F)c(CSc2nc3ccccc3s2)c(F)c1F`, the LC50 in data set [2] is 185 µM; in data set [3], 147 µM.
On to `CCOC(=O)c1csc(N/N=C/c2ccco2)n1`, for which the IC50 in the data set with Trypanosoma cruzi [10] came to 2.75 µM.
As to `COc1ccc(-c2c(/C=N/N=C(/N)SC)c(C(F)(F)F)nn2-c2ccccc2)cc1`, the IC50 with Trypanosoma cruzi [5] worked out at 19.1 µM.
With `COc1cc(OC)cc(OC2=C(Oc3cc(OC)cc(OC)c3OC)C(=O)c3ccccc3C2=O)c1`, the results for the IC50 in the data set with Trypanosoma cruzi [11], in the data set with Trypanosoma cruzi [12] and in the data set with Trypanosoma cruzi [6] were 43 µM, 1.3 µM and 0.49 µM, respectively.
Consider `COc1ccc(/C(CN2C(=O)c3ccccc3C2=O)=N\Nc2nc(-c3ccc(OC)cc3)cs2)cc1`, for which, in the data set with Trypanosoma cruzi [13], the IC50 stood at 4.48 µM.
Take `O=C1c2ccccc2C(=O)N1C/C(=N/NC(=S)Nc1ccccc1)c1ccc(Cl)cc1Cl`: the IC50 with Trypanosoma cruzi [13] turned out to be 3.6 µM.
Regarding `CCOC(=O)c1csc(N/N=C/c2ccccc2Br)n1`, the IC50 in the data set with Trypanosoma cruzi [10] was 0.83 µM.
As to `COC(=O)/C=C/c1ccc2c(c1)C(C(=O)OC)C(c1ccc(O)cc1)O2` (stereo not given), the IC50 was determined as 11.9 µM in the data set with Trypanosoma cruzi [4] and 3.26 µM with Trypanosoma cruzi [7]. For the same compound, in [8], the CC50 at 48 h is 49.9 µM.
Regarding `CC1CCc2oc3c(c2C1)C(=O)c1ccccc1C3=O` (stereo not given), the IC50 in the data set on Trypanosoma cruzi [5] was determined as 0.031 µM.
`Clc1ccc(Nc2cnc3ccccc3c2)cc1`: the IC50 with Trypanosoma cruzi [5] is over 500 µM; in the data set on Trypanosoma cruzi [6] it was 12 µM; with Trypanosoma cruzi [7] it was 25.8 µM.
With `CC1CCc2oc3c(c2C1)C(=O)C(=O)c1ccccc1-3` (stereo not given), it took 0.074 µM to reach half-maximal inhibition in the data set on Trypanosoma cruzi [5] (IC50).
Take `COC(=O)/C=C/c1ccc2c(c1)C(C(=O)OC)C(c1ccc(O)c(OC)c1)O2` (stereo not given): inhibition in the data set with Trypanosoma cruzi [4] was half-maximal at 7.96 µM (IC50). This compound also registered a CC50 at 48 h in data set [8] of 0.86 µM.
Regarding `C/C(=N\N=C1\NC(=O)C(c2ccccc2)S1)c1ccc(Cl)cc1Cl` (stereo not given), the IC50 in the data set with Trypanosoma cruzi [9] was 1.12 µM.
With `O=C1c2ccccc2C(=O)N1C/C(=N/NC(=S)Nc1ccccc1)c1ccc(F)cc1`, in the data set with Trypanosoma cruzi [13], the IC50 came to 3.75 µM.
Turning to `Cc1ccc(OC2=C(Br)C(=O)c3ccccc3C2=O)c(C)c1`, the IC50 with Trypanosoma cruzi [11] was 51 µM; in the data set on Trypanosoma cruzi [12], 1.69 µM; in the data set on Trypanosoma cruzi [6], 0.45 µM.
For `CS/C(N)=N\N=C\c1c(C(F)(F)F)nn(-c2ccccc2)c1-c1ccc(Br)cc1`, in the data set on Trypanosoma cruzi [5], the IC50 is 25.7 µM.
What is called EC50 is the concentration needed to bring the measured effect to its halfway point. In the case of `O=C(O)Cc1ccccc1/C=C/c1ccc2cccc(O)c2n1`, the EC50 in the data set with Trypanosoma cruzi [14] worked out at 40.8 µM.
`CC(C)(C)C1CCc2oc3c(c2C1)C(=O)c1ccccc1C3=O` (stereo not given): 0.033 µM corresponded to half-maximal inhibition in the data set with Trypanosoma cruzi [5] (IC50).
Turning to `CCC1S/C(=N\N=C(/C)c2ccc(Cl)cc2Cl)NC1=O` (stereo not given), in the data set with Trypanosoma cruzi [9], the IC50 was determined as 2.57 µM.
`O=C1C(=O)c2c(oc3c2CCCC3)-c2ccccc21`: half-maximal inhibition with Trypanosoma cruzi [5] (IC50) was put at 0.064 µM.
In the data set with Trypanosoma cruzi [5], `O=C1c2ccccc2C(=O)c2c1oc1c2CCCC1` registered an IC50 of 0.129 µM.
Turning to `CCOC(=O)c1csc(N/N=C(\C)c2ccccc2)n1`, the IC50 in the data set with Trypanosoma cruzi [10] is 2.83 µM.
Consider `NC(=S)N/N=C/c1c(C(F)(F)F)nn(-c2ccccc2)c1-c1ccc(Br)cc1`, for which, in the data set with Trypanosoma cruzi [5], 30 µM corresponded to half-maximal inhibition (IC50).
Turning to `COc1cccc(/C=C/c2ccc3cccc(O)c3n2)c1CC(=O)O`, the EC50 in the data set on Trypanosoma cruzi [14] is 36 µM.
For `CCOC(=O)c1csc(N/N=C/c2cccc(Cl)c2)n1`, the IC50 with Trypanosoma cruzi [10] came to 4.44 µM.
For the compound `O=C(Cn1ccnc1[N+](=O)[O-])NCc1ccccc1` [BENZNIDAZOLE], the Activity in data set [1] is given as 68.3%. Also, the half-inhibitory concentration (IC50) in the data set on Trypanosoma cruzi [10] was determined as 34.5 µM; in the data set with Trypanosoma cruzi [5], 91 µM; in the data set with Trypanosoma cruzi [4], 5.64 µM; in the data set with Trypanosoma cruzi [9], 6.26 µM. This compound also returned a CC50 at 48 h in [8] of 156 µM.

The record behind these values is ChEMBL document CHEMBL6109047, “Synthesis strategies and anti-parasitic evaluation of novel compounds for chagas disease: Advancing drug discovery through structure-activity relationships” (Eur J Med Chem, 2025).
